Data from PubChem BioAssay (NCI).
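Growth conditions: 96-well plates. Treatment: test compound, 48 hours, 5 concentrations. Analysis: linear interpolation between bracketing concentrations; unreached endpoints set to highest concentration. GI50 = concentration required for 50% inhibition of growth. TGI is the concentration that stops growth completely.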

Key:
Test in all cases: growth of human tumour cells (NCI), 48 h
786-0 renal = tested on: 786-0 renal
A498 renal = tested on: A498 renal
A549 NSCLC = tested on: A549 NSCLC
ACHN renal = tested on: ACHN renal
BT-549 breast = tested on: BT-549 breast
CAKI-1 renal = tested on: CAKI-1 renal
CCRF-CEM leukemia = tested on: CCRF-CEM leukemia
COLO 205 colon = tested on: COLO 205 colon
DU-145 prostate = tested on: DU-145 prostate
EKVX NSCLC = tested on: EKVX NSCLC
HCC-2998 colon = tested on: HCC-2998 colon
HCT-116 colon = tested on: HCT-116 colon
HCT-15 colon = tested on: HCT-15 colon
HL-60(TB) leukemia = tested on: HL-60(TB) leukemia
HOP-62 NSCLC = tested on: HOP-62 NSCLC
HOP-92 NSCLC = tested on: HOP-92 NSCLC
HS 578T breast = tested on: HS 578T breast
HT29 colon = tested on: HT29 colon
IGROV1 ovarian = tested on: IGROV1 ovarian
K-562 leukemia = tested on: K-562 leukemia
KM12 colon = tested on: KM12 colon
LOX IMVI melanoma = tested on: LOX IMVI melanoma
M14 melanoma = tested on: M14 melanoma
MALME-3M melanoma = tested on: MALME-3M melanoma
MCF7 breast = tested on: MCF7 breast
MDA-MB-231 breast = tested on: MDA-MB-231 breast
MDA-MB-435 = tested on: MDA-MB-435
MOLT-4 leukemia = tested on: MOLT-4 leukemia
NCI-H226 lung = tested on: NCI-H226 lung

Clc1cccc(-c2cc(-c3ccc4c(c3)OCCO4)[nH]n2)c1
GI50 (786-0 renal): 23.1 µM | TGI (786-0 renal): 64.9 µM | GI50 (A498 renal): 1.73 µM | TGI (A498 renal): 18.5 µM | GI50 (A549 NSCLC): 1.55 µM | TGI (A549 NSCLC): 44.5 µM | GI50 (ACHN renal): 9.69 µM | TGI (ACHN renal): 41 µM | GI50 (BT-549 breast): 6.32 µM | TGI (BT-549 breast): 47 µM | GI50 (CAKI-1 renal): 1.61 µM | TGI (CAKI-1 renal): 36.3 µM | GI50 (CCRF-CEM leukemia): 6.99 µM | TGI (CCRF-CEM leukemia): 182 µM | GI50 (COLO 205 colon): 1.42 µM | TGI (COLO 205 colon): 30.1 µM | GI50 (DU-145 prostate): 8.74 µM | TGI (DU-145 prostate): 38.9 µM | GI50 (EKVX NSCLC): 11.5 µM | TGI (EKVX NSCLC): 45.6 µM | GI50 (HCC-2998 colon): 7.26 µM | TGI (HCC-2998 colon): 51.4 µM | GI50 (HCT-116 colon): 5.96 µM | TGI (HCT-116 colon): 40.3 µM | GI50 (HCT-15 colon): 1.11 µM | TGI (HCT-15 colon): 33.5 µM | GI50 (HL-60(TB) leukemia): 4.65 µM | TGI (HL-60(TB) leukemia): 53.6 µM | GI50 (HOP-62 NSCLC): 2.39 µM | TGI (HOP-62 NSCLC): 41.6 µM | GI50 (HOP-92 NSCLC): 7.74 µM | TGI (HOP-92 NSCLC): 42.8 µM | GI50 (HS 578T breast): 6.67 µM | TGI (HS 578T breast): 63.3 µM | GI50 (HT29 colon): 0.952 µM | TGI (HT29 colon): 31.6 µM | GI50 (IGROV1 ovarian): 2.47 µM | TGI (IGROV1 ovarian): 36.7 µM | GI50 (K-562 leukemia): 1.04 µM | TGI (K-562 leukemia): 250 µM | GI50 (KM12 colon): 1.01 µM | TGI (KM12 colon): 38.5 µM | GI50 (LOX IMVI melanoma): 4.43 µM | TGI (LOX IMVI melanoma): 39.4 µM | GI50 (M14 melanoma): 1.49 µM | TGI (M14 melanoma): 35.3 µM | GI50 (MALME-3M melanoma): 5.22 µM | TGI (MALME-3M melanoma): 47.5 µM | GI50 (MCF7 breast): 4.25 µM | TGI (MCF7 breast): 32.9 µM | GI50 (MDA-MB-231 breast): 7.75 µM | TGI (MDA-MB-231 breast): 47.6 µM | GI50 (MDA-MB-435): 0.578 µM | TGI (MDA-MB-435): 26.1 µM | GI50 (MOLT-4 leukemia): 3.15 µM | TGI (MOLT-4 leukemia): 74.6 µM | GI50 (NCI-H226 lung): 29.5 µM | TGI (NCI-H226 lung): 92.1 µM
